The record followed here is patent US8138194B2, “Fused bicyclic pyrimidine compounds as aurora kinase inhibitors” (National Health Research Institutes, priority 2008, dated 2012).

SMILES strings stand for the structures. “And” between values parts separate entries of the source, which are not always exact repeats. Equal values may be shown once.

One assay has as its target PDGFRB (Homo sapiens, UniProt P09619). The assay can be described thus: Inhibition of other protein kinases: PDGFRB. Format: biochemical.
Another assay has as its target T1, FLT3 (Homo sapiens, UniProt P36888).
T1 sequence (P36888 27-993): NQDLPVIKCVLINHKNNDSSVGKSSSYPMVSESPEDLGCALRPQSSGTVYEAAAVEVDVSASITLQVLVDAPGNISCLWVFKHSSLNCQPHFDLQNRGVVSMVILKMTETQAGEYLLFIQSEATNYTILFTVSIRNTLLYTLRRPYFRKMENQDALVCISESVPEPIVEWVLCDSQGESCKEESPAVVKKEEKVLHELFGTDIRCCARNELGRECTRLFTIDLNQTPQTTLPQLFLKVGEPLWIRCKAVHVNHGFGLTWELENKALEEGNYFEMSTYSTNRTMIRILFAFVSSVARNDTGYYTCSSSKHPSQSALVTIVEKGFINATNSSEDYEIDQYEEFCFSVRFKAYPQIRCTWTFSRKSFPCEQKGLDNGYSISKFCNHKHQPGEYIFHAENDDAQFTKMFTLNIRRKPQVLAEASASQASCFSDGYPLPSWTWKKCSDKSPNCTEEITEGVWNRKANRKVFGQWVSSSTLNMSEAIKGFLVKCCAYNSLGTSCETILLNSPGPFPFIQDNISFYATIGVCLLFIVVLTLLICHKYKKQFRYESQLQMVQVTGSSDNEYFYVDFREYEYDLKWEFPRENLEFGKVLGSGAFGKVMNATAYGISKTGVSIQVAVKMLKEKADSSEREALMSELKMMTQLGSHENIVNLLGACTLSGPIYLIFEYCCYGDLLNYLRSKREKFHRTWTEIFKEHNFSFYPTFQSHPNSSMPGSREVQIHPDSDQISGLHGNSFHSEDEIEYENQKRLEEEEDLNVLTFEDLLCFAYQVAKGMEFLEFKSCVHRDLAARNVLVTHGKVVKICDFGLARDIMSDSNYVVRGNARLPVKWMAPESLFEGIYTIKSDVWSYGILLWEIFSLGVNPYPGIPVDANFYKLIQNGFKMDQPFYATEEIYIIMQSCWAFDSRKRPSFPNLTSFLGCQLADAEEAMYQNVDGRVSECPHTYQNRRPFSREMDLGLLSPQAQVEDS
The assay can be described thus: Inhibition of other protein kinases: FLT3. It counts as biochemical.

A further assay deals with T2, PLK4 (Homo sapiens, UniProt O00444).
T2 sequence (O00444 1-970): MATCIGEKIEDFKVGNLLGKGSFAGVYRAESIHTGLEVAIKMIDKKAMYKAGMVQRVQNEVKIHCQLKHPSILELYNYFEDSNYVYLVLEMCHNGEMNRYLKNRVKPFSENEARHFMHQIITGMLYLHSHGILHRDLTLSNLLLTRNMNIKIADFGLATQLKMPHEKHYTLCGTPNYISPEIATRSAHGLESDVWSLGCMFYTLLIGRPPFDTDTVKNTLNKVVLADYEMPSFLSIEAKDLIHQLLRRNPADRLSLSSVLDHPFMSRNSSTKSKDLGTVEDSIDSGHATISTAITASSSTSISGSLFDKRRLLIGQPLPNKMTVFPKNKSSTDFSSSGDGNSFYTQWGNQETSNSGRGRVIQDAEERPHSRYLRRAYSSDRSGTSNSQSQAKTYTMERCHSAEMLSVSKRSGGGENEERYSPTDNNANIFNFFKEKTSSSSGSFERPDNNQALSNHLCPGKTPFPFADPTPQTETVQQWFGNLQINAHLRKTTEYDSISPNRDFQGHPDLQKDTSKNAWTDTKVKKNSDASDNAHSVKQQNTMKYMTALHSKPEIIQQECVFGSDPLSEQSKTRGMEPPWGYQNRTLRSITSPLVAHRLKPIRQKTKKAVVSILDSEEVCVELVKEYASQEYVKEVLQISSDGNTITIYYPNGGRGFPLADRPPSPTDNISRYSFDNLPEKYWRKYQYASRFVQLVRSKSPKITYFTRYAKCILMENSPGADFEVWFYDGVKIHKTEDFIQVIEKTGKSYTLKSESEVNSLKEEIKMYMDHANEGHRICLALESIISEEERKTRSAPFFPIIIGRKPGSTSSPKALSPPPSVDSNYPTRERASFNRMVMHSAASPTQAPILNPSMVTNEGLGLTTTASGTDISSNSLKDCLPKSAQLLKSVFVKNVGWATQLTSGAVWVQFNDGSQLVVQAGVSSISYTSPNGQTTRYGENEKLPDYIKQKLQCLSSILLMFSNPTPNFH
Description: Inhibition of other protein kinases: PLK4. Format: biochemical.

Assay [1] deals with T3, GST-tAurora A (123-401aa) fusion protein (Homo sapiens, UniProt O14965).
T3 construct: GST-tAurora A (123-401aa) fusion protein; made in house; host or cells: Sf9 insect cells (baculovirus, pBacPAK8)
T3 sequence (O14965 123-401): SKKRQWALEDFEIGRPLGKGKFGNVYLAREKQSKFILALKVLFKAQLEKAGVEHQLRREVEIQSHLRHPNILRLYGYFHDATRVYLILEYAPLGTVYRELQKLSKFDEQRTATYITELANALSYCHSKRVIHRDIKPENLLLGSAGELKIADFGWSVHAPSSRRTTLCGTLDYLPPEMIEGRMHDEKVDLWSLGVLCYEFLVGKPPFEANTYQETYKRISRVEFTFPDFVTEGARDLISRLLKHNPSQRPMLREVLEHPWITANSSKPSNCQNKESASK
The assay can be described thus: Aurora Kinase A luminescent kinase assay. As to conditions: IC50 (concentration of a test compound at which activity of 50% of Aurora A is inhibited). It counts as biochemical.

The test system of another assay is HCT-116 cells. Description: HCT-116 cell viability MTS assay. It counts as cell-based. The note with it: Homo sapiens, read-out: IC50 (concentration of a test compound which causes 50% of the cell death); HCT-116, 96-h incubation, MTS. As to the method: HCT-116 cell viability was examined by the MTS assay (Promega, Madison, Wis., USA). 2000 HCT-116 cells in 100 μL McCoy's 5a medium were seeded in each well of a 96-well plate. After 96-h incubation with a test compound, the cells were incubated with 20 μL of a MTS/PMS mixture (MTS/PMS ratio: 20: 1) for 2 h at 37° C. in a humidified incubator with 5% CO2 to allow viable cells to convert the tetrazolium salt (MTS) into formazan. The amount/concentration of formazan, which indicates the number of live cells, was determined by measuring the absorbance at 490 nm using a PerkinElmer Victor2 plate reader (PerkinElmer, Shelton, Cont., USA).

A further assay concerns HCT-116 xenografts. The assay can be described thus: In vivo anticancer activity, colon tumor xenograft mice (injected with HCT-116). On the set-up: species or system nude mice. The note with it: for average tumor size: treated mice. As to the method: In vivo efficacy of the compounds of this invention was assessed using colon tumor xenograft mice (injected with HCT-116), as described in Cancer Research 2004, 64, 4621-4628.
HCT-116 cells were grown as subcutaneous tumors in nude mice. When well-established HCT-116 xenografts were palpable with tumor size of ˜100 mm^3, mice were randomly assigned to three groups: a vehicle control group (10 mice), a positive control group (10 mice), and a treatment group (21 mice). Of the treated mice, ten received Compound 209 at a daily dosage of 5 mg/kg and eleven received the same compound at a daily dosage of 15 mg/kg of via IV injection through the tail veins for 5 days/week for 2 consecutive weeks (days 1-5 and 8-12). The positive control mice received VX-680 (a known anti-cancer compound) at a daily dosage of 50 mg/kg, also via IV injection through the tail veins for 5 days/week for 2 consecutive weeks (days 1-5 and 8-12).

Chain of PDGFRB (P09619 33-1106, species assumed): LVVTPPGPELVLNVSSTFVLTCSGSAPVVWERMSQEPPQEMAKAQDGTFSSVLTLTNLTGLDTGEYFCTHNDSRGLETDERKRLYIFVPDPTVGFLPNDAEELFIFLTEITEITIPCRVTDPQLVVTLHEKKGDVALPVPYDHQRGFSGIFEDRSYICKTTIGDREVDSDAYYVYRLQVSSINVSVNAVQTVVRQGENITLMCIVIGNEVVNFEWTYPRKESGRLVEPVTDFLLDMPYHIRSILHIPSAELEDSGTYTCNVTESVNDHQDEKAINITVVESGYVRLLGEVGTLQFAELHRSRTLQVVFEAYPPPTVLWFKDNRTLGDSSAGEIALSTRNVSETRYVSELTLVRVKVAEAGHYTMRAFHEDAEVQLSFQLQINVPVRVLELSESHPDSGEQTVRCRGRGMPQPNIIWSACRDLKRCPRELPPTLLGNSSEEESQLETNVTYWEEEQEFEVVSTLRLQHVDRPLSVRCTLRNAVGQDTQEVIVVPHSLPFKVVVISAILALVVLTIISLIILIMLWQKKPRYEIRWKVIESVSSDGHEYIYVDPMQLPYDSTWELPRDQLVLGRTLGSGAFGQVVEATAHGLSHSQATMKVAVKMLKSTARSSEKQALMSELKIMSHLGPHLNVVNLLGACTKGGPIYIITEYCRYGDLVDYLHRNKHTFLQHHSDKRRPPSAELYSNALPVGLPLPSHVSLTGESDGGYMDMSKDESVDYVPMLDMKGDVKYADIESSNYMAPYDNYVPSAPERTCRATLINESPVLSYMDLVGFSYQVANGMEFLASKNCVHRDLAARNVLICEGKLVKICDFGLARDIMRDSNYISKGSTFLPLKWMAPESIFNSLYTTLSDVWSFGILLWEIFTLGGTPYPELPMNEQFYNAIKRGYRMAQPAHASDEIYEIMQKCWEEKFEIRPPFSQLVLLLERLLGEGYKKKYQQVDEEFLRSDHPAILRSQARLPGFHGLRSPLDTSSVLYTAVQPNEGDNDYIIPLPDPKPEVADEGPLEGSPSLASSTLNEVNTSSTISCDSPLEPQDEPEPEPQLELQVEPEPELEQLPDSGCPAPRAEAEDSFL

Consider `O=C(Nc1ccccc1)Nc1ccc(CCNc2ncnc3oc(-c4ccccc4)c(Cl)c23)cc1` [Compound 82], for which the “inhibits the activity of PDGFRB” value at PDGFRB is on record as “inhibits”. Besides, at FLT3, the “inhibits the activity of FLT3” value is given as “inhibits”. Further, the “inhibits the activity of PLK4” value against PLK4 was “inhibits”. Further, the IC50 is 45 to 400 nM and < 1000 nM in assay [1]; 100 to 900 nM in the assay on HCT-116 cells.

Regarding `Cc1cc(Nc2cc(N3CCN(C)CC3)nc(Sc3ccc(NC(=O)C4CC4)cc3)n2)n[nH]1` [VX-680, reference compound], in the assay on HCT-116 xenografts (50 mg/kg daily, IV, days 1-5 and 8-12, positive control), the “inhibition of tumor growth” value is “inhibition of tumor growth”.

In the case of `O=C(Nc1ccccc1)Nc1ccc(CCNc2ncnc3oc(-c4ccc(OCCN5CCOCC5)cc4)cc23)cc1` [Compound 230], the IC50 was 45 to 400 nM and < 1000 nM in assay [1]; 100 to 900 nM in the assay with HCT-116 cells.

As to `O=C(Nc1ccccc1)Nc1ccc(CCNc2ncnc3oc(-c4cccc(O)c4)cc23)cc1` [Compound 223], the IC50 in assay [1] is < 1000 nM and 45 to 400 nM; in the assay with HCT-116 cells it was 100 to 900 nM.

With `O=C(Nc1ccccc1)Nc1ccc(CCNc2ncnc3oc(Cl)c(-c4ccccc4)c23)cc1` [Compound 213], the IC50 in assay [1] is < 1000 nM; in the assay on HCT-116 cells, 100 to 900 nM.

Consider `CN(C)Cc1ccccc1NC(=O)Nc1ccc(CCNc2ncnc3oc(-c4ccccc4)c(-c4ccccc4)c23)cc1` [Compound 123], for which the IC50 in assay [1] is 45 to 400 nM and < 1000 nM; in the assay with HCT-116 cells it was 100 to 900 nM.

In the case of `Cc1c(-c2ccccc2)oc2ncnc(NCCc3ccc(NC(=O)Nc4ccccc4)cc3)c12` [Compound 226], the IC50 in assay [1] is < 1000 nM and 45 to 400 nM; in the assay on HCT-116 cells it was 100 to 900 nM.

Take `CN(C)Cc1ccccc1NC(=O)Nc1ccc(CCNc2ncnc3oc(-c4ccccc4)c(Cl)c23)cc1` [Compound 209]: the tumor growth suppression result in the assay on HCT-116 xenografts (5 mg/kg daily, IV, days 1-5 and 8-12) is recorded as “suppressed tumor growth insignificantly”. For the same molecule, the “inhibition of tumor growth” value in the assay on HCT-116 xenografts (15 mg/kg daily, IV, days 1-5 and 8-12) was “inhibition of tumor growth comparable to that of VX-680”. Further, the average tumor size in the assay with HCT-116 xenografts (eleventh day (dose group not stated)) was found to be 654 mm^3; in the assay with HCT-116 xenografts (fourth day (dose group not stated)), 381 mm^3. Also, the IC50 was < 1000 nM and 45 to 400 nM in assay [1]; < 100 nM with HCT-116 cells.

For `O=C(Nc1ccccc1)Nc1ccc(CCNc2ncnc3oc(-c4ccccc4)c(Br)c23)cc1` [Compound 57], the IC50 in assay [1] was 45 to 400 nM and < 1000 nM; in the assay with HCT-116 cells, 100 to 900 nM.
